Columns and labels:
hepatitis B virus (HBV) = settings: compared with TDF; cited from earlier work
[1] = compared with TDF; cited from earlier work
[2] = tested on: HBsAg of HepG2-NTCP cells; test: In vitro anti-HBV activity in HepG2-NTCP cells: HBsAg in culture supernatant by ELISA; format: cell-based
Method: (§1) On day 0, HepG2-NTCP cells were plated into 48-well plates (7.5×10^4 cells/well). On day 1, change to medium containing 2% DMSO.
(§2) On day 2, the cells were pretreated by adding compounds for 1 hour, and then HepG2-NTCP cells were infected by the addition of […] (compounds were added simultaneously). The test compound was diluted to three concentrations for single treatment, one concentration for combined treatment. Testing in duplicate. The control compound is ETV. See Table 2 for compound concentrations.
(§3) On days 3, 5 and 7, the medium was replaced with fresh medium containing compounds.
(§4) On the ninth day, the supernatant was collected, which was then detected by ELISA for levels of HBeAg and HbsAg, and by qPCR for level of HBV DNA. Meanwhile, detecting cell viability by CellTiter-Glo. Collecting cells for cryopreservation (for spare).
(§5) 2) Detecting the levels of HBeAg and HBsAg in cell culture supernatant by ELISA. The test was performed in accordance with the instructions of the kit, and was briefly described as follows:
(§6) Taking respective 50 μl of standard, sample and control compound, and adding to the detection plate, then adding 50 μl of enzyme conjugate to each well, incubating at 37° C. for 60 minutes, washing the plate with washing solution, blotting dry, then adding 50 μl of premixed luminescent substrate, and incubating at room temperature in the dark for 10 minutes, and finally measuring luminescence values by a microplate reader.
(§7) Inhibition rate of Hbe/sAg (%)=(1-HBe/sAg level of sample compound/HBe/sAg level of DMSO control group)×100%

HBeAg and HBsAg = settings: as reported in the literature; cited from earlier work
[3] = tested on: HBV DNA of HepG2-NTCP cells; test: In vitro anti-HBV activity in HepG2-NTCP cells: HBV DNA in culture supernatant by qPCR; format: cell-based
Method: as §1, §2, §3, §4
1) Detecting the level of HBV DNA in cell culture supernatant by qPCR
According to the instructions of QIAamp 96 DNA Blood Kit, extracting DNA from cell culture supernatant. The level of HBV DNA was detected by qPCR with HBV-specific primers. PCR reaction: 95° C., 10 min; 95° C., 15 sec, 60° C., 1 min, 40 cycles.
Inhibition rate of HBV DNA (%)=(1-HBV copy number of sample compound group/HBV copy number of DMSO group)×100%

[4] = tested on: HBeAg in HepG2-NTCP cells; test: microbe, parasite or virus in culture; format: cell-based, HBV
Method: as §1, §2, §3, §4, §5, §6, §7

HepG2-NTCP cells = test: Cell viability assay by CellTiter-Glo; format: cell-based; settings: different concentrations, FIG. 7
Method: as §4
3) Cell Viability Assay by CellTiter-Glo Cell
The cell viability was determined according to the instructions of the CellTiter-Glo kit. The assay is briefly described as follows: Collecting the cell culture supernatant, adding CellTiter-Glo (1:1 dilution of medium) to each well, incubating at room temperature for 10 minutes, and measuring luminescence values with a microplate reader.

AAV-HBV mouse models = test: In vivo experiments in AAV-HBV mouse models: plasma HBV DNA, HBsAg, HBeAg; settings: AAV-HBV mice, 60mpk by gavage once a day, 90-day period of administration
Method: Experimental method: AAV-HBV mouse models were administered by gavage, once a day; the compound group (G10 HD042, i.e., celecoxib): the dose of celecoxib was 60mpk; and the blank group (G1 vehicle control group): 10% DMSO+40% PEG400+5% Tween 80+45% Saline (V/V) solution.
During the 90-day period of administration, blood was collected on the 6th, 13th, 20th, 27th, 34th, 41st, 48th, 55th, 62nd, 69th, […], 83rd, and 90th days, respectively, and the plasma levels of HBV DNA, HBsAg, HBeAg and anti-HBs were tested with the results shown in FIGS. 4 to 5.

[5] = Hepatitis B virus, 216 h, read-out: HBsAg inhibition rate
[6] = Hepatitis B virus, 216 h, read-out: HBeAg inhibition rate
[7] = repeated parallel experiments, FIG. 6

## CC(C)OC(=O)[C@H](C)N[P@](=O)(CO[C@H](C)Cn1cnc2c(N)ncnc21)Oc1ccccc1 [Tenofovir alafenamide, Tenofovir Alafenamide]
Hepatitis B virus (HBV)
  antiviral activity relative to tenofovir disoproxil TDF: 10 times
[1]
  half-life relative to tenofovir disoproxil TDF: 225 times
  stability in plasma relative to tenofovir disoproxil TDF: 200 times

## C=C1C(CO)C(O)CC1n1cnc2c(=O)nc(N)[nH]c21 [ETV, 2-amino-1,9-dihydro-9-[(1S,3R,4S)-4-hydroxy-3-(hydroxymethyl)-2-methylenecyclopentane]-6H-purin-6-one]
[2]; [5]
  inhibition at 0.0001 µM: 1.22%
HBeAg and HBsAg
  effect on reducing HBeAg and HBsAg: little effect
[3]; Hepatitis B virus, 216 h, 0.1 nM ETV, HepG2-NTCP cells, supernatant day 9, read-out: HBV DNA inhibition rate
  inhibition at 0.0001 µM: 44.7%
[4]; [6]
  inhibition at 0.0001 µM: -1.35%

## Cc1ccc(-c2cc(C(F)(F)F)nn2-c2ccc(S(N)(=O)=O)cc2)cc1 [compound of formula 1, celecoxib]
HepG2-NTCP cells
  cytotoxicity on HepG2-NTCP cells: an effect on the virus rather than cytotoxicity
[2]; [5]
  inhibition at 1 µM: 21.5%
  inhibition at 10 µM: -7.65%
  inhibition at 20 µM: 46.1%
[2]; [7]
  inhibitory effect on HBsAg, repeated cell experiments: significant dose-dependent manner
[3]; Hepatitis B virus, 216 h, 1 μM compound of formula 1, HepG2-NTCP cells, supernatant day 9, read-out: HBV DNA inhibition rate
  inhibition at 1 µM: 7.59%
[3]; Hepatitis B virus, 216 h, 10 μM compound of formula 1, HepG2-NTCP cells, supernatant day 9, read-out: HBV DNA inhibition rate
  inhibition at 10 µM: 49.2%
[3]; Hepatitis B virus, 216 h, 20 μM compound of formula 1, HepG2-NTCP cells, supernatant day 9, read-out: HBV DNA inhibition rate
  inhibition at 20 µM: 73%
[3]; [7]
  inhibitory effect on HBV DNA, repeated cell experiments: significant dose-dependent manner
[4]; [6]
  inhibition at 1 µM: 18%
  inhibition at 10 µM: 50.4%
  inhibition at 20 µM: 78.1%
[4]; [7]
  inhibitory effect on HBeAg, repeated cell experiments: significant dose-dependent manner
AAV-HBV mouse models
  reduction of plasma level of HBV DNA: 0.72 Log 10 copy/mL
  reduction of plasma level of HBeAg: 0.34 Log 10 PEIU/mL
  reduction of plasma level of HBsAg: 0.76 Log 10 IU/mL
